Measured values taken from patent US4711885A, “N-(N'-phenylpiperazine)-alkyl triazole compounds having anxiolytic and analgesic properties” (Adir et Compagnie, priority 1985, dated 1987).

Tests used:
Format in all cases: in vivo
[1] = tested on: mice; test: phenylbenzoquinone test according to Siegmund (analgesic activity, contractions of the abdomen); conditions: for ED50: Mus musculus, po, mice; for analgesic activity in the Siegmund test: in words
Text: (§1) The analgesic activity of the compounds of the present invention was studied by means of the tail-flick test according to D'Amour F. E. and Smith D. L., Journal of pharmacology and experimental therapeutics, 72, 74-79 (1941), the hot plate test according to Woolfe G. and MacDonald A. D., Journal of pharmacology and experimental therapeutics, 80, 300-307 (1944) and the phenylbenzoquinone test according to Siegmund E., Cadmus R. and Lu G, Proc. Soc. […]. Biol. Med. 95, 729-731 (1957).

[2] = tested on: mice; test: hot plate test according to Woolfe and MacDonald (analgesic activity, licking time); conditions: Mus musculus, ip
Text: as §1

[3] = tested on: mice; test: tail-flick test according to D'Amour and Smith (analgesic activity, reaction time); conditions: for ED50: Mus musculus, ip, mice
Text: The analgesic activity of the compounds of the present invention was studied by means of the tail-flick test according to D'Amour F. E. and Smith D. L., Journal of pharmacology and experimental therapeutics, 72, 74-79 (1941), the hot plate test according to Woolfe G. and MacDonald A. D., Journal of pharmacology and experimental therapeutics, 80, 300-307 (1944) and the phenylbenzoquinone test according to Siegmund E., Cadmus R. and Lu G, Proc. Soc. Exptle. Biol. Med. 95, 729-731 (1957).
By way of example, the following table lists the results of the analgesic effects observed in mice for several representative products of the invention:
Note: The mean effective dose (ED50) was calculated:
in the tailflick test from the percentage variations in the reaction time
(in seconds) by comparison with the control batch.

[4] = tested on: mice; test: four plates test according to Aron et al. (anxiolytic activity, number of shocks received); conditions: for % number of shocks received: mice, N = 10; for anxiolytic activity in the 4 plates test: in words
Text: The anxiolytic activity was studied, for its part, by means of the four plates test according to Aron C., Simon P., Larousse C. and Boissier J. R., Neuropharmacology, 10, 459-469, (1971), the conflict test according to Vogel J. R., Beer B., Clody D. E., Physchopharmacol.

[5] = tested on: rats; test: Mac Millan punishment test, punishment operating conditioning (anxiolytic activity, number of punished responses); conditions: for percentage variation in the number of punished responses: rats, N ≥ 9; for anxiolytic activity in the conflict test according to MacMillan: in words
Text: The anxiolytic activity was studied, for its part, by means of the four plates test according to Aron C., Simon P., Larousse C. and Boissier J. R., Neuropharmacology, 10, 459-469, (1971), the conflict test according to Vogel J. R., Beer B., Clody D. E., Physchopharmacol. 21, 1-7, (1971) and the punishment test according to Mac Millan D. E., J. Exp. Anal. Behav, 19, 133-145 (1973).
PUNISHMENT OPERATING CONDITIONING (RATS)
PERCENTAGE VARIATION IN THE NUMBER
OF PUNISHED RESPONSES (N ≥ 9)
S = Significant modification

Compound | ED50 [1] [mg/kg] | ED50 [2] [mg/kg] | ED50 [3] [mg/kg] | % number of shocks received ([4]; 2.5 mg/kg i.p.) | % number of shocks received ([4]; 5 mg/kg i.p.) | % number of shocks received ([4]; 10 mg/kg i.p.) | % number of shocks received ([4]; 25 mg/kg i.p.) | anxiolytic activity in the 4 plates test [4] | activity in the tail-flick test ([3]; 50 mg/kg i.p., in words) | percentage variation in the number of punished responses ([5]; 2.5 mg/kg i.p.) | percentage variation in the number of punished responses ([5]; 5 mg/kg i.p.) | percentage variation in the number of punished responses ([5]; 10 mg/kg i.p.) | percentage variation in the number of punished responses ([5]; 20 mg/kg i.p.) [%] | anxiolytic activity in the conflict test according to MacMillan [5] | analgesic activity in the Siegmund test [1]
FC(F)(F)c1cccc(N2CCN(CCCc3nnc4n3C[C@H]3CCCC[C@H]3C4)CC2)c1 (relative stereo) [Example 3, Cis-10{γ-N-[N'(metatrifluoromethylphenyl)piperazine]n-propyl}-3,3a,4,5,6,7,7a,8-octahydrotriazolo[4,3-b]isoquinoline] | 16 | 19.8 | > 50 | +38% | +44% | +48% | 18% | very significant anxiolytic activity | – | – | – | – | – | – | –
Clc1cccc(N2CCN(CCc3nnc4n3[C@H]3CCCC[C@@H]3CC4)CC2)c1 (relative stereo) [Example 12] | 25.7 | 25.3 | 30.7 | +38% | +15% | +20% | +2% | very significant anxiolytic activity | active | -33.5% | -24% | -51.3% | -75 | – | –
FC(F)(F)c1cccc(N2CCN(CCc3nnc4n3C[C@H]3CCCC[C@H]3C4)CC2)c1 (relative stereo) [Example 16] | 17 | 24.3 | > 50 | -12% | +2% | +32% | +5% | very significant anxiolytic activity | – | +5.4% | +42.2% | +125.9% | -60.7 | very significant anxiolytic activity | –
Clc1cccc(N2CCN(CCCc3nnc4n3C[C@H]3CCCC[C@H]3C4)CC2)c1 (relative stereo) [Example 40] | 7.5 | 53.9 | > 50 | – | – | – | – | – | – | – | – | – | – | – | very significant analgesic activiy
Clc1cccc(N2CCN(CCCc3nnc4n3[C@H]3CCCC[C@H]3CC4)CC2)c1 (relative stereo) [Example 42] | 11.4 | – | > 50 | – | – | – | – | – | – | – | – | – | – | – | –
Clc1cccc(N2CCN(CCc3nnc4n3CC3CCCCC43)CC2)c1 (stereo not drawn) [Example 2, 9-{β-N'-[N-(metachlorophenyl)piperazine]ethyl}-[7H]-2b,3,4,5,6,6a-hexahydrotriazolo[3,4-a]cyclohexa(c)pyrrole] | 8.7 | > 50 | > 50 | – | – | – | – | – | – | – | – | – | – | – | very significant analgesic activiy
FC(F)(F)c1cccc(N2CCN(CCc3nnc4n3CC3CCCC43)CC2)c1 (centres unmarked) [Example 17a] | 5.82 | 21.3 | > 50 | +18% | +26% | +35% | +61% | very significant anxiolytic activity | – | +47.8% | +33.6% | +42.6% | -70.3 | very significant anxiolytic activity | –
FC(F)(F)c1cccc(N2CCN(CCc3nnc4n3CC3CCCC43)CC2)c1 (centres unmarked) [Example 17b] | – | – | – | +15% | +34% | +53% | +27% | very significant anxiolytic activity | – | – | – | – | – | – | –
FC(F)(F)c1cccc(N2CCN(CCc3nnc4n3CC3CCCCC43)CC2)c1 (centres unmarked) [Example 36] | 4.3 | 25 to 50 | > 50 | -12% | -4% | -4% | +39% | very significant anxiolytic activity | – | – | – | – | – | – | very significant analgesic activiy
